Laboratory results as given in patent US12285489B2, “Bone targeted antimicrobial oxazolidinone related compounds, formulations thereof, and uses thereof” (priority 2018, dated 2025).
Values after ≈ are worked out from the molar mass of the structure shown. Like-named read-outs stand apart in the source and are kept apart here.

Legend:
Format in all cases: cell-based
S. aureus [1] = experiment: Antimicrobial susceptibility (MIC/MBEC), standard assays in polystyrene wells; details: for MIC: Staphylococcus aureus
S. aureus biofilm [2] = experiment: Ex vivo rat femur biofilm prevention setting; details: rat femurs saturated with compound; K-W test, p<0.01; comparator=control; FIG. 18B
Source text: (§1) FIG. 18A is a picture of rat femurs saturated with antibiotics or the conjugates after they are introduced to a solution of S. aureus in our ex vivo preventative experimental setting. The more the bone appears red, the more staphylococcal biofilms there are adhered to the surface in those regions.
as §1, with “depicts” for “is”

S. aureus [3] = experiment: Preventative hydroxyapatite (HA) experiment; details: K-W test, p<0.01; comparator=control; FIG. 16
Source text: FIG. 16 depicts the results of a preventative hydroxyapatite (HA) experiment with tested compounds against S. aureus.
FIG. 16 depicts the results of a preventative hydroxyapatite (HA) experiment with tested compounds against S. aureus. […] (K-W test, * p<0.01; comparator=control). The results were obtained using standard assays.

S. aureus biofilm [4] = experiment: Ex vivo rat femur biofilm eradication setting; details: K-W test, p<0.01, comparator=control, FIG. 18B
Aa = experiment: Antimicrobial susceptibility (MIC/MBEC), standard assays in polystyrene wells
[5] = S. aureus, polystyrene wells, read-out: MIC

MIC (S. aureus [1]; [5]) [µg/mL]	MIC (Aa) [µg/mL]	SMILES	MBEC (S. aureus [1]; S. aureus, polystyrene wells) [µg/mL]	S. aureus biofilm prevention on femurs ex vivo (S. aureus biofilm [2])	efficacy for preventing the growth of staphylococcal cells on HA (S. aureus [3])	S. aureus biofilm eradication on femurs ex vivo (S. aureus biofilm [4])	MBEC (Aa) [µg/mL]	MIC (S. aureus [1]) [µg/mL]
16 (≈ 23.6 µM)	–	Cn1nnc(-c2ccc(-c3ccc(N4C[C@H](COC(=O)Nc5ccc(CC(P(=O)(O)O)P(=O)(O)O)cc5)OC4=O)cc3F)cn2)n1 [BCT, (R)-(2-(4-((((3-(3-fluoro-4-(6-(2-methyl-2H-tetrazol-5-yl)pyridin-3-yl)phenyl)-2-oxooxazolidin-5-yl)methoxy)carbonyl)amino)phenyl)ethane-1,1-diyl)bis(phosphonic acid)]	32	–	–	–	–	–
0.5 (≈ 1.51 µM)	0.5 (≈ 1.51 µM)	O=C(O)c1cn(C2CC2)c2cc(N3CCNCC3)c(F)cc2c1=O [C, Ciprofloxacin]	32	–	–	–	8	–
0.25 (≈ 0.546 µM)	2 (≈ 4.37 µM)	CN(C)c1ccc(O)c2c1C[C@H]1C[C@H]3[C@H](N(C)C)C(O)=C(C(N)=O)C(=O)[C@@]3(O)C(O)=C1C2=O [M, Minocycline]	16	–	–	–	8	–
0.5 (≈ 1.35 µM)	–	Cn1nnc(-c2ccc(-c3ccc(N4C[C@H](CO)OC4=O)cc3F)cn2)n1 [T, Tedizolid]	8	–	–	–	–	–
–	–	CN[C@H](CC(C)C)C(=O)N[C@H]1C(=O)N[C@@H](CC(N)=O)C(=O)N[C@H]2C(=O)N[C@H]3C(=O)N[C@H](C(=O)N[C@H](C(=O)O)c4cc(O)cc(O)c4-c4cc3ccc4O)[C@H](O)c3ccc(c(Cl)c3)Oc3cc2cc(c3O[C@@H]2O[C@H](CO)[C@@H](O)[C@H](O)[C@H]2O[C@H]2C[C@](C)(N)[C@H](O)[C@H](C)O2)Oc2ccc(cc2Cl)[C@H]1O [V, Vancomycin]	8	–	–	–	–	1 (≈ 0.69 µM)
0.05 (≈ 0.125 µM)	0.05 (≈ 0.125 µM)	COc1c(N2C[C@@H]3CCCN[C@@H]3C2)c(F)cc2c(=O)c(C(=O)O)cn(C3CC3)c12 [X, Moxifloxacin]	0.5	–	–	–	0.1	–

SMILES	MIC (S. aureus [1]; [5]) [µg/mL]	MIC (Aa) [µg/mL]	MBEC (S. aureus [1]; S. aureus, polystyrene wells) [µg/mL]	S. aureus biofilm prevention on femurs ex vivo (S. aureus biofilm [2])	efficacy for preventing the growth of staphylococcal cells on HA (S. aureus [3])	S. aureus biofilm eradication on femurs ex vivo (S. aureus biofilm [4])	MBEC (Aa) [µg/mL]	MIC (S. aureus [1]) [µg/mL]
Cn1nnc(-c2ccc(-c3ccc(N4C[C@H](COC(=O)c5ccc(CC(P(=O)(O)O)P(=O)(O)O)cc5)OC4=O)cc3F)cn2)n1 [BET, (R)-(2-(4-(((3-(3-fluoro-4-(6-(2-methyl-2H-tetrazol-5-yl)pyridin-3-yl)phenyl)-2-oxooxazolidin-5-yl)methoxy)carbonyl)phenyl)ethane-1,1-diyl)bis(phosphonic acid)]	4 (≈ 6.04 µM)	–	16	significantly prevented or eradicated biofilm growth	statistically significant efficacy for preventing the growth of staphylococcal cells	significantly prevented or eradicated biofilm growth	–	–
